Measurements: patent US10577363B2, “Substituted piperidine compounds” (EPIZYME, INC., priority 2014, dated 2020)

Each compound was assayed against SMYD3 (Homo sapiens (Human), UniProt Q9H7B4) (assay: SMYD3 biochemical assay (SPA, 3H-SAM methylation of MEKK2 protein substrate)). Conditions: read-out: SMYD3 Biochem IC50 (μM)*.
Procedure, shortened: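 Tritium incorporation into GST-MEKK2 is counted by scintillation proximity after citric acid bead capture. Native human SMYD3 is preincubated with test compound for 30 min at room temperature at pH 8.0 (Tris-Cl, TCEP, BSG, Tween 20) before 3H-SAM and substrate are added; cold SAM at 100 uM final stops turnover.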

IC50 [µM]	Structure (SMILES)
1.17	C[C@@H]1CC(NC(=O)c2cc(C3CC3)on2)CCN1C(=O)[C@@H](CN)Cc1ccc(O)cc1 (stereo partly drawn) [compound 357, N-((2R)-1-((R)-3-amino-2-(4-hydroxybenzyl)propanoyl)-2-methylpiperidin-4-yl)-5-cyclopropylisoxazole-3-carboxamide]
3.4	C[C@H](C(=O)N1CC[C@@H](NC(=O)c2cc(C3CC3)on2)C[C@@H]1C)C1CCNCC1 [compound 358, 5-cyclopropyl-N-((2S,4R)-2-methyl-1-((S)-2-(piperidin-4-yl)propanoyl)piperidin-4-yl)isoxazole-3-carboxamide]
1.46	C[C@@H](C(=O)N1CC[C@@H](NC(=O)c2cc(C3CC3)on2)C[C@@H]1C)C1CCNCC1 [compound 359, 5-cyclopropyl-N-((2S,4R)-2-methyl-1-((R)-2-(piperidin-4-yl)propanoyl)piperidin-4-yl)isoxazole-3-carboxamide]
2.95	O=C(N[C@@H]1CCN(C(=O)CC2CCNCC2)C[C@@H]1CO)c1cc(C2CC2)on1 [compound 362, 5-cyclopropyl-N-((3S,4R)-3-(hydroxymethyl)-1-(2-(piperidin-4-yl)acetyl)piperidin-4-yl)isoxazole-3-carboxamide]
1.99	N[C@H]1CC[C@H](C(=O)N2CC[C@@H](NC(=O)c3cc(C4CC4)on3)C[C@@H]2CO)CC1 [compound 363, N-((2R,4R)-1-((1r,4R)-4-aminocyclohexane-1-carbonyl)-2-(hydroxymethyl)piperidin-4-yl)-5-cyclopropylisoxazole-3-carboxamide]
4.57	N[C@H]1CC[C@H](C(=O)N2CC[C@H](NC(=O)c3cc(C4CC4)on3)C[C@H]2Cc2ccccc2)CC1 [compound 364, N-((2R,4S)-1-((1r,4R)-4-aminocyclohexane-1-carbonyl)-2-benzylpiperidin-4-yl)-5-cyclopropylisoxazole-3-carboxamide]
2.75	C[C@H]1C[C@H](NC(=O)c2cc(C3CC3)on2)CCN1C(=O)c1cccc(C(C)(C)N)c1 [compound 366, N-((2S,4R)-1-(3-(2-aminopropan-2-yl)benzoyl)-2-methylpiperidin-4-yl)-5-cyclopropylisoxazole-3-carboxamide]
5.87	C[C@H]1C[C@H](NC(=O)c2cc(C3CC3)on2)CCN1C(=O)c1ccc(C(C)(C)N)cc1 [compound 369, N-((2S,4R)-1-(4-(2-aminopropan-2-yl)benzoyl)-2-methylpiperidin-4-yl)-5-cyclopropylisoxazole-3-carboxamide]
4.95	C[C@@H]1C[C@@H](NC(=O)c2cc(C3CC3)on2)CCN1C(=O)c1ccc(C(C)(C)N)cc1 [compound 371, N-((2R,4S)-1-(4-(2-aminopropan-2-yl)benzoyl)-2-methylpiperidin-4-yl)-5-cyclopropylisoxazole-3-carboxamide]
5.89	C[C@H]1C[C@H](NC(=O)c2cc(C3CC3)on2)CCN1C(=O)C1CCCC(CN)C1 (stereo partly drawn) [compound 372, N-((2S,4R)-1-(3-(aminomethyl)cyclohexane-1-carbonyl)-2-methylpiperidin-4-yl)-5-cyclopropylisoxazole-3-carboxamide]
> 10	C[C@@H]1C[C@@H](NC(=O)c2cc(C3CC3)on2)CCN1S(=O)(=O)Cc1cccnc1 [compound 374, 5-cyclopropyl-N-((2R,4S)-2-methyl-1-((pyridin-3-ylmethyl)sulfonyl)piperidin-4-yl)isoxazole-3-carboxamide]
1.83	O=C(N[C@H]1CCN(C(=O)CC2CCNCC2)[C@H](Cc2ccccc2)C1)c1cc(C2CC2)on1 [compound 375, N-((2R,4S)-2-benzyl-1-(2-(piperidin-4-yl)acetyl)piperidin-4-yl)-5-cyclopropylisoxazole-3-carboxamide]
1.32	O=C(N[C@@H]1CCN(C(=O)CC2CCNCC2)[C@@H](Cc2ccccc2)C1)c1cc(C2CC2)on1 [compound 376, N-((2S,4R)-2-benzyl-1-(2-(piperidin-4-yl)acetyl)piperidin-4-yl)-5-cyclopropylisoxazole-3-carboxamide]
3.35	C[C@H]1C[C@H](NC(=O)c2cc(C3CC3)on2)CCN1S(=O)(=O)c1ccccc1 [compound 379, 5-cyclopropyl-N-((2S,4R)-2-methyl-1-(phenylsulfonyl)piperidin-4-yl)isoxazole-3-carboxamide]
0.323	C[C@H]1C[C@H](NC(=O)c2cc(C3CC3)on2)CCN1S(=O)(=O)c1cccc(C#N)c1 [compound 380, N-((2S,4R)-1-((3-cyanophenyl)sulfonyl)-2-methylpiperidin-4-yl)-5-cyclopropylisoxazole-3-carboxamide]
2.54	N[C@H]1CC[C@H](C(=O)N2CC[C@@H](NC(=O)c3cc(C4CC4)on3)[C@H](CO)C2)CC1 [compound 382, N-((3R,4R)-1-((1r,4R)-4-aminocyclohexane-1-carbonyl)-3-(hydroxymethyl)piperidin-4-yl)-5-cyclopropylisoxazole-3-carboxamide]
3.02	O=C(N[C@@H]1CCN(C(=O)CC2CCNCC2)C[C@H]1CO)c1cc(C2CC2)on1 [compound 383, 5-cyclopropyl-N-((3R,4R)-3-(hydroxymethyl)-1-(2-(piperidin-4-yl)acetyl)piperidin-4-yl)isoxazole-3-carboxamide]
4.04	N[C@H]1CC[C@H](C(=O)N2CC[C@@H](NC(=O)c3cc(C4CC4)on3)C[C@H]2CO)CC1 [compound 384, N-((2S,4R)-1-((1r,4S)-4-aminocyclohexane-1-carbonyl)-2-(hydroxymethyl)piperidin-4-yl)-5-cyclopropylisoxazole-3-carboxamide]
> 10	N[C@H]1CC[C@H](C(=O)N2CC[C@@H](NC(=O)c3cc(C4CC4)on3)C[C@@H]2Cc2ccccc2)CC1 [compound 389, N-((2S,4R)-1-((1r,4S)-4-aminocyclohexane-1-carbonyl)-2-benzylpiperidin-4-yl)-5-cyclopropylisoxazole-3-carboxamide]
> 10	C[C@@H]1C[C@@H](NC(=O)c2cc(C3CC3)on2)CCN1C(=O)c1cccc(C(C)(C)N)c1 [compound 392, N-((2R,4S)-1-(3-(2-aminopropan-2-yl)benzoyl)-2-methylpiperidin-4-yl)-5-cyclopropylisoxazole-3-carboxamide]
3.16	COCC(C)S(=O)(=O)N1CC[C@H](NC(=O)c2cc(C3CC3)on2)C[C@@H]1C (stereo partly drawn) [compound 393, 5-cyclopropyl-N-((2S,4S)-1-((1-methoxypropan-2-yl)sulfonyl)-2-methylpiperidin-4-yl)isoxazole-3-carboxamide]
> 10	CC(C)OCCS(=O)(=O)N1CC[C@@H](NC(=O)c2cc(C3CC3)on2)C[C@@H]1C [compound 394, 5-cyclopropyl-N-((2S,4R)-1-((2-isopropoxyethyl)sulfonyl)-2-methylpiperidin-4-yl)isoxazole-3-carboxamide]
3.41	O=C(N[C@@H]1CCN(S(=O)(=O)CCN2CCCC2)[C@@H](Cc2ccccc2)C1)c1cc(C2CC2)on1 [compound 406, N-((2S,4R)-2-benzyl-1-((2-(pyrrolidin-1-yl)ethyl)sulfonyl)piperidin-4-yl)-5-cyclopropylisoxazole-3-carboxamide]
1.15	O=C(N[C@H]1CCN(S(=O)(=O)CCN2CCCC2)[C@H](Cc2ccccc2)C1)c1cc(C2CC2)on1 [compound 408, N-((2R,4S)-2-benzyl-1-((2-(pyrrolidin-1-yl)ethyl)sulfonyl)piperidin-4-yl)-5-cyclopropylisoxazole-3-carboxamide]
2.51	N[C@H]1CC[C@H](C(=O)N2CC[C@H](NC(=O)c3cc(C4CC4)on3)[C@@H](CO)C2)CC1 [compound 421, N-((3S,4S)-1-((1r,4S)-4-aminocyclohexane-1-carbonyl)-3-(hydroxymethyl)piperidin-4-yl)-5-cyclopropylisoxazole-3-carboxamide]
1.94	N[C@H]1CC[C@H](C(=O)N2CC[C@H](NC(=O)c3cc(C4CC4)on3)[C@H](CO)C2)CC1 [compound 422, N-((3R,4S)-1-((1r,4R)-4-aminocyclohexane-1-carbonyl)-3-(hydroxymethyl)piperidin-4-yl)-5-cyclopropylisoxazole-3-carboxamide]
> 10	C[C@@H]1C[C@@H](NC(=O)c2cc(C3CC3)on2)CCN1C(=O)c1ccc2[nH]cnc2c1 [compound 425, N-((2R,4S)-1-(1H-benzo[d]imidazole-5-carbonyl)-2-methylpiperidin-4-yl)-5-cyclopropylisoxazole-3-carboxamide]
> 10	C[C@H]1C[C@H](NC(=O)c2cc(C3CC3)on2)CCN1C(=O)c1ccc2[nH]cnc2c1 [compound 426, N-((2S,4R)-1-(1H-benzo[d]imidazole-5-carbonyl)-2-methylpiperidin-4-yl)-5-cyclopropylisoxazole-3-carboxamide]

Structure (SMILES)	IC50 [µM]
C[C@@H]1CN(S(=O)(=O)CCCN)CC[C@H]1NC(=O)c1cc(C2CC2)on1 [compound 388, N-((3R,4R)-1-((3-aminopropyl)sulfonyl)-3-methylpiperidin-4-yl)-5-cyclopropylisoxazole-3-carboxamide]	0.462
O=C(N[C@@H]1CCN(S(=O)(=O)CCN2CCOCC2)[C@@H](Cc2ccccc2)C1)c1cc(C2CC2)on1 [compound 409, N-((2S,4R)-2-benzyl-1-((2-morpholinoethyl)sulfonyl)piperidin-4-yl)-5-cyclopropylisoxazole-3-carboxamide]	> 10
CC(C)CN(C)c1ccc(S(=O)(=O)N2CC[C@@H](NC(=O)c3cc(C4CC4)on3)C[C@@H]2C)cn1 [compound 411, 5-cyclopropyl-N-((2S,4R)-1-((6-(isobutyl(methyl)amino)pyridin-3-yl)sulfonyl)-2-methylpiperidin-4-yl)isoxazole-3-carboxamide]	> 10
O=C(NC1CC2CCC(C1)N2S(=O)(=O)CC1CCNCC1)c1cc(C2CC2)on1 (centres unmarked) [compound 416, 5-cyclopropyl-N-(8-((piperidin-4-ylmethyl)sulfonyl)-8-azabicyclo[3.2.1]octan-3-yl)isoxazole-3-carboxamide]	0.164
